Data from PubChem BioAssay (NCI).
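Cells were grown in 96-well plates and exposed to each compound for 48 hours at five concentrations; endpoints were interpolated linearly between bracketing concentrations, or set to the highest concentration if not reached. GI50 is the concentration that inhibits growth by half. The concentration for full growth arrest is given as TGI.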

Columns and labels:
Experiment in all cases: growth of human tumour cells (NCI), 48 h
[1] = test system: HS 578T breast
[2] = test system: PC-3 prostate
[3] = test system: SW-620 colon
[4] = test system: SK-MEL-28 melanoma
[5] = test system: SNB-75 CNS
[6] = test system: RPMI-8226 leukemia
[7] = test system: K-562 leukemia
[8] = test system: M14 melanoma
[9] = test system: COLO 205 colon
[10] = test system: ACHN renal

| SMILES | GI50 [1] [µM] | TGI [1] [µM] | GI50 [2] [µM] | TGI [2] [µM] | GI50 [3] [µM] | TGI [3] [µM] | GI50 [4] [µM] | TGI [4] [µM] | GI50 [5] [µM] | TGI [5] [µM] | GI50 [6] [µM] | TGI [6] [µM] | GI50 [7] [µM] | TGI [7] [µM] | GI50 [8] [µM] | TGI [8] [µM] | GI50 [9] [µM] | TGI [9] [µM] | GI50 [10] [µM] | TGI [10] [µM] |
| --- | --- | --- | --- | --- | --- | --- | --- | --- | --- | --- | --- | --- | --- | --- | --- | --- | --- | --- | --- | --- |
| COC(=O)c1cc2c(cc1Cl)SC1=NN(C)S(=O)N1S2(=O)=O (stereo not drawn) | > 100 | > 100 | > 100 | > 100 | > 100 | > 100 | > 100 | > 100 | 85.9 | > 100 | > 100 | > 100 | > 100 | > 100 | > 100 | > 100 | > 100 | > 100 | > 100 | > 100 |
| O=C(Nc1ccc(-n2ccc3c(NC(=O)c4ccccc4)ncnc32)cc1)c1cccc(C(F)(F)F)c1 | 3.65 | 33.3 | 3.3 | 34 | 1.05 | 18.8 | 10.6 | 24.9 | 3.58 | 22.3 | 1.6 | 33.3 | 0.13 | > 53.8 | 2.85 | 17.6 | 4.1 | 20.9 | 1.09 | 23.6 |
| [O-][N+]1(CC[N+]2([O-])CCCCC2)CCCCC1 | – | > 100 | – | > 100 | – | > 100 | – | > 100 | – | > 100 | – | > 100 | – | > 100 | – | > 100 | – | > 100 | – | > 100 |
| CCCCCCCC(=O)OCCCC1[C@]2(C)CC[C@@]3(C)C([C@H](C)CCC=C(C)C)CC[C@]3(C)C2CC[C@]12OC2(C)C (stereo partly drawn) | 40.3 | > 100 | 30.2 | > 100 | 40.4 | > 100 | 42.4 | > 100 | > 100 | > 100 | 36.4 | > 100 | 44.1 | > 100 | > 100 | > 100 | 39.7 | > 100 | 22.9 | 45.4 |
| CCN1CCN(c2cc(C)nc(N(CCCNc3ccnc4cc(Cl)ccc34)Cc3ccc4c(c3)OCO4)n2)CC1 | 1.93 | 5.26 | 3.6 | > 100 | 2.81 | 12.5 | 1.84 | 3.46 | 1.59 | 3.57 | 1.8 | 4.49 | 1.91 | 7.86 | 1.89 | 3.5 | 1.72 | 3.39 | 3.16 | 10.6 |
| O=C(/C=C/c1ccc(C(F)(F)F)cc1)Nc1ccc(C=C2c3ccccc3C(=O)c3ccccc32)cc1 | 13.1 | > 100 | 1.84 | > 100 | 4.57 | > 100 | 7.38 | > 100 | 7.26 | 39.1 | 1.15 | 85.9 | – | – | 3.41 | 18.8 | 6.18 | 38.4 | 19.4 | > 100 |
| O=S1(=O)N(Cc2ccccc2)[C@@H](Cc2ccccc2)[C@H](O)[C@H](O)[C@H](Cc2ccccc2)N1Cc1ccccc1 | 3.27 | 8.38 | 3.48 | 10.4 | 3.18 | 7.12 | 3.35 | 6.9 | 2.31 | 7.28 | 4.49 | > 20 | 3.05 | 9.38 | 3.04 | 6.07 | 4.26 | 10.4 | 6.01 | > 20 |
| O=C(Nc1ccc(F)cc1F)c1cc(Cl)ccc1O | 0.978 | 7.25 | 1.88 | 41.2 | 2.61 | 18.7 | 0.754 | 8.69 | 1.09 | 3.79 | 0.689 | 3.83 | – | – | 0.446 | 4.18 | 7.79 | 22.5 | 2.09 | 7.68 |
| O=c1c2cc(-c3ccccc3)sc2ncn1Cc1ccc(Cl)c(Cl)c1 | 11 | 45.1 | 19.1 | 55.1 | > 100 | > 100 | 45.5 | > 100 | 18.1 | 48.7 | 36.8 | > 100 | 20.7 | > 100 | 25.7 | > 100 | > 100 | > 100 | 22.7 | 75.6 |
| C[Si](C)(c1ccc(C(=O)O)cc1)c1ccc(C(=O)O)cc1 | – | > 100 | – | > 100 | – | > 100 | – | > 100 | – | > 100 | – | > 100 | – | > 100 | – | > 100 | – | > 100 | – | > 100 |
| Cc1cc(Nc2nc(C(=O)Nc3ccccc3)nc3ccccc23)n[nH]1 | 7.68 | > 25 | – | – | 9.7 | > 25 | > 25 | > 25 | 6.8 | > 25 | 12.5 | > 25 | 7.94 | > 25 | 3.48 | > 25 | 14.4 | > 25 | 2.87 | > 25 |
| CCCn1cnc2c(SCC(=O)O)nc(N)nc21 | – | > 100 | – | > 100 | – | > 100 | – | > 100 | – | > 100 | – | > 100 | – | > 100 | – | > 100 | – | > 100 | – | > 100 |
| O=[N+]([O-])c1cccc(-c2nc(-c3ccccc3)c(-c3ccccc3)[nH]2)c1 | – | > 100 | – | > 100 | – | > 100 | – | > 100 | – | – | – | > 100 | – | > 100 | – | > 100 | – | > 100 | – | – |
| CN(C)c1nc(=NCc2ccco2)ss1 | – | 78 | – | 30.5 | – | 61.9 | – | 46.4 | – | 53.9 | – | 36.3 | – | > 90.8 | – | > 53.8 | – | > 68.5 | – | 45 |
| CCC(C)Oc1nc2c(c(=O)n(C)c(=O)n2C)n1C (stereo not drawn) | – | – | > 100 | > 100 | > 100 | > 100 | > 100 | > 100 | > 100 | > 100 | – | – | > 100 | > 100 | > 100 | > 100 | > 100 | > 100 | > 100 | > 100 |
